Experimental data as given in US20050171038A1, “Therapeutic combinations” (Agouron Pharmaceuticals, Inc., priority 2004, published 2005).

Columns and labels:
HIV-1 RF = assay: XTT dye reduction combination assay: protection of CEM-SS cells against HIV-1 RF infection, MacSynergy II analysis; type: cell-based; details: 95% confidence interval
CEM-SS cells = assay: Cytotoxicity of the combinations in the XTT dye reduction assay (mock infected CEM-SS cells)
Method: CEM-SS cells were added at 2×10^4 cells per well into 96-well plates containing 1.5-fold or 2.0-fold dilutions of test compounds, and were subsequently infected with HIV-1 RF at a multiplicity of infection of 0.470 or mock infected with medium only. Six days after infection, 50 μl of XTT (1 mg/ml XTT tetrazolium, […] phenazine methosulfate) were added to the wells and the plate was reincubated for four hours. Viability, as determined by the amount of XTT formazan produced, was quantified spectrophotometrically by absorbance at 450 nm. Optical density values were exported to a MacSynergy™ II (3, University of Michigan, Ann Arbor, Mich.) spreadsheet for subsequent analysis.

[1] = in combination with (4R)-N-allyl-3-{(2S,3S)-2-hydroxy-3-[(3-hydroxy-2-methylbenzoyl)amino]-4-phenylbutanoyl}-5,5-dimethyl-1,3-thiazolidine-4-carboxamide, mean of two or three independent experiments
[2] = in combination with N-ethyl-4,4-difluoro-1-{(2S,3S)-2-hydroxy-3-[(3-hydroxy-2,5-dimethylbenzoyl)amino]-4-phenylbutanoyl}-3,3-dimethyl-L-prolinamide, six days after infection of CEM-SS cells with HIV-1 RF, triplicate plates
[3] = in combination with N-ethyl-4,4-difluoro-1-{(2S,3S)-2-hydroxy-3-[(3-hydroxy-2,5-dimethylbenzoyl)amino]-4-phenylbutanoyl}-3,3-dimethyl-L-prolinamide
[4] = in combination with 4,4-difluoro-1-{(2S,3S)-2-hydroxy-3-[(3-hydroxy-2-methylbenzoyl)amino]-4-phenylbutanoyl}-3,3-dimethyl-N-(2,2,2-trifluoroethyl)-L-prolinamide, six days after infection of CEM-SS cells with HIV-1 RF, triplicate plates
[5] = in combination with 4,4-difluoro-1-{(2S,3S)-2-hydroxy-3-[(3-hydroxy-2-methylbenzoyl)amino]-4-phenylbutanoyl}-3,3-dimethyl-N-(2,2,2-trifluoroethyl)-L-prolinamide

## O=C1Nc2ccc(Cl)cc2[C@@](C#CC2CC2)(C(F)(F)F)O1 [Efavirenz, (S)-6-chloro-4-(cyclopropylethynyl)-1,4-dihydro-4-(trifluoromethyl)-2H-3,1-benzoxazin-2-one]
HIV-1 RF; [1]
  Antagonism (volume): −1.1 μM^2%
  Synergy (volume): 130 μM^2%
HIV-1 RF; [2]
  Antagonism (volume): 0 μM^2%
  Synergy (volume): 78 μM^2%
CEM-SS cells; [3]
  Cytotoxicity: none

## Cc1cccc(C)c1OCC(=O)N[C@@H](Cc1ccccc1)[C@@H](O)C[C@H](Cc1ccccc1)NC(=O)[C@H](C(C)C)N1CCCNC1=O (relative stereo) [Lopinavir, [1S-[1R*,(R*),3R*,4R*]]—N-[4-[[(2,6-dimethyl-phenoxy)acetyl]amino]-3-hydroxy-5-phenyl-1-(phenylmethyl)pentyl]tetrahydro-alpha-(1-methylethyl)-2-oxo-1(2H)-pyrimidineacetamide]
HIV-1 RF; [4]
  Antagonism (volume): 0 μM^2%
  Synergy (volume): 261 μM^2%
CEM-SS cells; [5]
  Cytotoxicity: none

## CC(C)OC(=O)OCOP(=O)(CO[C@H](C)Cn1cnc2c(N)ncnc21)OCOC(=O)OC(C)C.O=C(O)/C=C/C(=O)O [Tenofovir, 9-[(R)-2-[[bis[[(isopropoxycarbonyl)oxy]methoxy]phosphinyl]methoxy]propyl]adenine fumarate (1:1)]
HIV-1 RF; [4]
  Antagonism (volume): −6.0 μM^2%
  Synergy (volume): 106 μM^2%
HIV-1 RF; [1]
  Antagonism (volume): 0 μM^2%
  Synergy (volume): 125 μM^2%
HIV-1 RF; [2]
  Antagonism (volume): 0 μM^2%
  Synergy (volume): 14 μM^2%
CEM-SS cells; [5]
  Cytotoxicity: none
CEM-SS cells; [3]
  Cytotoxicity: insignificant

## Cc1ccnc2c1NC(=O)c1cccnc1N2C1CC1 [Nevirapine, 11-cyclopropyl-5,11-dihydro-4-methyl-6H-dipyrido[3,2-b:2′,3′-e][1,4]diazepin-6-one]
HIV-1 RF; [4]
  Antagonism (volume): 0 μM^2%
  Synergy (volume): 270 μM^2%
HIV-1 RF; [1]
  Antagonism (volume): 0 μM^2%
  Synergy (volume): 203 μM^2%
HIV-1 RF; [2]
  Antagonism (volume): −2.4 μM^2%
  Synergy (volume): 153 μM^2%
CEM-SS cells; [5]
  Cytotoxicity: none
CEM-SS cells; [3]
  Cytotoxicity: insignificant

## Cc1cn([C@H]2C[C@H](N=[N+]=[N-])[C@@H](CO)O2)c(=O)[nH]c1=O [Zidovudine, 3′-azido-3′-deoxythymidine]
HIV-1 RF; [4]
  Antagonism (volume): 0 μM^2%
  Synergy (volume): 107 μM^2%
HIV-1 RF; [1]
  Antagonism (volume): −0.88 μM^2%
  Synergy (volume): 180 μM^2%

## CC(C)c1nc(CN(C)C(=O)N[C@H](C(=O)N[C@@H](Cc2ccccc2)C[C@H](O)[C@H](Cc2ccccc2)NC(=O)OCc2cncs2)C(C)C)cs1 (relative stereo) [Ritonavir, 10-hydroxy-2-methyl-5-(1-methylethyl)-1-[2-(1-methylethyl)-4-thiazolyl]-3,6-dioxo-8,11-bis(phenylmethyl)-2,4,7,12-tetraazatridecan-13-oic acid, 5-thiazolylmethyl ester, [5S-(5R*,8R*,10R*,11R*)]]
HIV-1 RF; [1]
  Antagonism (volume): −0.77 μM^2%
  Synergy (volume): 407 μM^2%

## Cc1c(O)cccc1C(=O)N[C@@H](CSc1ccccc1)[C@H](O)CN1C[C@H]2CCCC[C@H]2C[C@H]1C(=O)NC(C)(C)C (relative stereo) [Nelfinavir, [3S-[2(2S*, 3S*),3-alpha,4abeta,8abeta]]-N-(1,1-dimethylethyl)decahydro-2-[2-hydroxy-3-[(3-hydroxy-2-methylbenzoyl)amino]-4-(phenylthio)butyl]-3-isoquinolinecarboxamide mono-methanesulfonate]
HIV-1 RF; [4]
  Antagonism (volume): −0.28 μM^2%
  Synergy (volume): 653 μM^2%
HIV-1 RF; [1]
  Antagonism (volume): −13 μM^2%
  Synergy (volume): 197 μM^2%
HIV-1 RF; [2]
  Antagonism (volume): 0 μM^2%
  Synergy (volume): 229 μM^2%
CEM-SS cells; [5]
  Cytotoxicity: none
CEM-SS cells; [3]
  Cytotoxicity: none
